# Test results as given in patent publication EP2662079A1 (Ordway Research Institute, Inc., priority 2012, dated 2013).
# Values joined by “and” are separate entries in the source; they are usually repeats but may differ in a detail not shown here. Equal values may be shown once.
# What was measured:
# [1] = tested on: Matrigel plugs; experiment: Mouse Matrigel model of angiogenesis (plug hemoglobin); assay type: in vivo, mice (C57BL/6NCr)
# Description: Normal male mice (C57BL/6NCr) 6-8 weeks of age and weighing ~20 g were purchased from Taconic farm. Animals were housed 4 per cage, in controlled conditions of temperature (20-24 °C); humidity (60-70%) and 12 hrs. light/dark cycle provided with food and water ad libitum. […] Matrigel (BD Bioscience, San Jose CA) was thawed overnight at 4 °C and placed on ice. Aliquots of matrigel were placed into cold polypropylene tubes to prevent the matrigel from solidifying and the angiogenesis promoter added to matrigel with or without agonist. Mice were treated daily. Matrigel was subcutaneously injected as triple injection per animal at 100 µL/animal. At day 14 post plug implant all animals were killed in CO2 chamber and matrigel plugs were collected. […]
# The matrigel plugs dissected from the mice were carefully stripped of any remaining peritoneum. The plugs were placed into 0.5 mL tube of ddH2O and homogenized for 5-10 min. […] Absorbance was read with a Microplate Manager ELISA reader at 540 nm. […] Hemoglobin concentration is a reflection of the number of blood vessels in the plugs.
# [2] = tested on: MCF7/R cells; experiment: Growth of doxorubicin-resistant tumors in nude mice; assay type: in vivo; conditions: Tetrac 30 mg/kg (Figure 17)
# [3] = tested on: h-MTC cells; experiment: RNA microarray of MTC cells; assay type: cell-based, human
# Text: Treatment of animals with unmodified or nanoparticulate Tetrac. […] Estimation of tumor response to Tetrac or nanoparticulate Tetrac. […] Statistical analysis for CAM and xenograft studies. […] Statistical significance was defined as P <0.05. RNA microarray analysis.
# [4] = tested on: MDA-MB-231 cells; experiment: RNA microarray of MDA-MB-231 cells; assay type: cell-based, human
# Description: Tetrac and nanoparticulate Tetrac. Tetrac was custom-synthesized by Peptido GMBH (Bembach, Germany). The proprietary Tetrac nanoparticle was custom-synthesized by covalently-bonding of the outer ring hydroxyl of Tetrac to PLGA via an intervening linker. […] Cell culture for definition of effects of Tetrac formulations on tumor cell proliferation. MDA-MB-231 cells were purchased from ATCC (Manassas, VA). Cells were maintained until use in DMEM that contained 10% FBS. The incubator conditions were 5% CO2/95% 02 and 37° C. The action of unmodified Tetrac and nanoparticulate on MDA-MB-231 cells was determined in a perfusion bellows cell culture system we have recently described for quantitating pharmaceutical agent pharmacodynamics in vitro. (See Lin et al., J Steroid Biochem Mol Biol 113: 182-188 (2009)). In brief, the cell culture system is a disposable bioreactor capable of high density cell culture for studies of anti-cancer drugs. Bellows-induced alternate flow of culture medium and air through porous matrices where cells are grown provides a relatively low shear, high aeration, foam-free culture environment. Medium level is raised and lowered to submerge and expose matrices to create a dynamic interface between air and media on the cell surface. Anchorage-dependent cells are grown on plastic flakes in the system. The flakes facilitate harvesting of whole cells for analysis. In the present studies, 5 x 10^7 cells were seeded in each perfusion flask and incubated at 37 C overnight. Flakes thereafter were sampled at regular intervals (Figure 44), subjected to trypsinization and the harvested cells counted. When Tetrac or nanoparticulate Tetrac were initially added to the system, flasks contained 20-50 x 10^6 cells. Cell cultures were re-fed with 1% FBS-containing medium. Studies were carried out in duplicate flasks and replicated once. Cell culture for harvesting of RNA. MDA-MB-231 cells were maintained in DMEM that was supplemented with 10% FBS in a 5% CO2/95% 02 air incubator at 37°C. For two days prior to exposure to Tetrac and nanoparticulate Tetrac, cells were maintained in 0.25% FBS that was stripped of estrogen and thyroid hormone. (See Lin et al., Biochemistry 42: 7571-7579 (2003)). RNA microarray and analysis. Microarray analysis experiments were conducted as described previously. (See Glinsky et al., J Clin Invest 115: 1503-1521 (2005); Glinsky et al., J Clin Invest 113: 913-923 (2004); Glinsky et al., Clin Cancer Res 10: 2272-2283 (2004); and Glinsky et al., Mol Carcinog 37: 209-221 (2003)). In brief, the array hybridization and processing, retrieval of data and analysis utilized standard sets of Affymetrix (Santa Clara, CA) equipment, software and protocols in the microarray core facility of Ordway Research Institute. […] Sample purity and integrity were verified with an Agilent BioAnalyzer (Santa Clara, CA). Expression analysis of 54,675 transcripts for each sample was by Affymetrix HG-U133A Plus 2.0 arrays. MAS5.0 software was used for data retrieval and analysis and concordant changes of gene expression in response to unmodified Tetrac and nanoparticulate Tetrac were defined by two-tailed t test at a threshold p value < 0.01.
# Expression of ~54,000 transcripts was analyzed in control and drug-treated cultures, using Affymetrix Human Genome U133 plus 2.0 microarrays. Subsequent analysis was focused on genes affected by treatment at p < 0.01. There was 93% concordance between Tetrac and Tetrac NP in terms of genes affected; notable disparities included downregulation of epidermal growth factor receptor (EGFR) by Tetrac NP and no affect of unmodified Tetrac on this gene.
# [5] = tested on: GL261 murine brain tumor cells; experiment: GL261 growth curve, cell size and colony forming efficiency; assay type: cell-based
# Description: 1 x 10^5 cells per 25 cm^2 flask at time zero (density 40 cells/mm^2). Three flasks were utilized at each time period. The medium in the flasks was not changed over the duration of the growth curve (unfed cultures). Data were taken daily from day zero to day 11.5 post-seeding and cell numbers, age distributions, and apoptotic percentages were determined. After growth curve shapes (without and with 2 µM Tetrac) were determined, irradiation times at 70 and 270 hour post-seeding were chosen.
# To obtain exponential and plateau phase cell numbers, we trypsinized ([…] trypsin-EDTA) cells for 5 min at 37°C.
# For determination of CCDTs, the cell numbers per flask were determined on a daily basis. A four-day interval in the exponential region of growth to obtain the CCDTs, yielding a total of 12 estimations for analysis was utilized. A regression analysis was performed using the (log) of the cell number versus the linear time in days (SigmaPlot, V. 10, Systat Software, Inc., Point Richmond, CA). The log slope value and its standard error (SE) were determined, and the SE was converted to the 95% confidence limits using a two-tailed t-table at N-1 degrees of freedom where N is the number of samples. (See Goldstein, A. In: Biostatistics, New York, The MacMillan Co., 1964, p. 140-146).
# [6] = gene expression, listed as unmodified Tetrac
smiles,measurement,setting,value
"O=C(O)Cc1cc(I)c(Oc2cc(I)c(O)c(I)c2)c(I)c1 [Tetrac, 3,3',5,5'-tetraiodothyroacetic acid]",Hemoglobin (mg/mL)± SEM,"[1]; FGF 100 ng + compound 10 µg/plug, n= 7-14",0.5 ± 0.1 mg/mL
same,Mean inhibition of angiogenesis (%),"[1]; FGF-induced angiogenesis, 10 µg/plug",85%
same,Hemoglobin (mg/mL)± SEM,"[1]; T4 + antagonist, each 10 µg/matrigcl plug",0.4 ± 0.1 mg/mL
same,growth of drug resistant tumors in nude mice,[2],effective in suppressing the growth
same,expression of VEGFA,[3],significantly decreased expression
same,"expression of apoptosis-associated genes (CASP2, DFFA, FAF1, CASP8AP2)",[3],caused expression
same,expression of thrombospondin (THBS1),[3],increase
same,expression of epidermal growth factor receptor (EGFR),"[4]; 10^-7 M, 24 h",no affect
same,Change: CBY1,[4]; gene expression,significantly increased
same,Change: CDKN2C (Cyclin-dependent kinase inhibitor),[4]; gene expression,↑
same,Change: Cyclins (Cell cycle regulators),[4]; gene expression,↓
same,Change: THBS1,[4]; gene expression,strongly induced
same,Change: BCL2L14,[4]; [6],not a significant stimulatory action
same,Change: CASP2,[4]; [6],not a significant stimulatory action
same,Change: MCL1,[4]; [6],did not significantly affect
same,Change: XIAP,[4]; [6],also acted on XIAP
same,saturation density of control cells relative to Tetrac-treated cells,[5],approximately 2.4 times
same,cell doubling time,"[5]; Tetrac-treated GL261 cells, 2 µM, exponential growth",43.8 ± 3.8 h and 43.8 h
